Assay results as given in patent EP4122499A1, “FIBROBLAST ACTIVATION PROTEIN INHIBITORS AND USE THEREOF” (3B Pharmaceuticals GmbH, priority 2021, dated 2023).

Assays:
[1] = target: T1, Human recombinant FAP (Homo sapiens, UniProt Q12884); assay: Surface plasmon resonance assay (Biacore T200, single cycle kinetics); assay type: binding; details: SPR, 25°C; for HL [min] (Biacore): half-life; for Kd / pKD (Biacore): 1:1 Langmuir binding model; for Kd: read-out: pKD (Biacore) (converted)
T1 sequence (Q12884 1-760): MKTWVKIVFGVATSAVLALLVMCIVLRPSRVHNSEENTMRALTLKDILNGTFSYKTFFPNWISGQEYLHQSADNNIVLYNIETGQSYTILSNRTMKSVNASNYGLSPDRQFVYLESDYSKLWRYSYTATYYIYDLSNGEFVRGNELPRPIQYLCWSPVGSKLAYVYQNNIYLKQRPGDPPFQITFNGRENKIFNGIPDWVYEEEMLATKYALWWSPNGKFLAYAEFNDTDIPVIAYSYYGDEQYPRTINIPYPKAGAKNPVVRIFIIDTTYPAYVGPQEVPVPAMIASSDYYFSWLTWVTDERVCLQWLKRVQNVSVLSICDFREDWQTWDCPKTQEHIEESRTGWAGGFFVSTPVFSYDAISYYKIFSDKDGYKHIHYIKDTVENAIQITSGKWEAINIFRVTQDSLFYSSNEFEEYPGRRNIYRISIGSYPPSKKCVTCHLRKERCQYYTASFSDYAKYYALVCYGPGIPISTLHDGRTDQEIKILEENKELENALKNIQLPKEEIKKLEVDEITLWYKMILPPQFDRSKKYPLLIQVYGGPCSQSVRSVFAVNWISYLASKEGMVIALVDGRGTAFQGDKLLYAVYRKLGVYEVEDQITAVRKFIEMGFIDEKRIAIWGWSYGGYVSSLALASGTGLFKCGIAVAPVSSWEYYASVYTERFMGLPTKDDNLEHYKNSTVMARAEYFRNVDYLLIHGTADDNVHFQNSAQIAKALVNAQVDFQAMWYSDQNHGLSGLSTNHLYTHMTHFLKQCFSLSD
Description: Surface plasmon resonance studies were performed using a Biacore™ T200 SPR system (Cytiva, formerly GE Healthcare). Briefly, polarized light is directed towards a gold-labeled sensor surface, and minimum intensity reflected light is detected. The angle of reflected light changes as molecules bind and dissociate. […] Test compounds are contacted with the loaded surface, and a real-time interaction profile with the FAP ligand is recorded in a sensorgram. In real-time, the association and dissociation of a binding interaction is measured, enabling calculation of association and dissociation rate constants and the corresponding affinity constants. Importantly, a background response is generated due to the difference in the refractive indices of the running and sample buffers, as well as unspecific binding of the test compounds to the flow cell surface. This background is measured and subtracted by running the sample on a control flow cell coated with the same density of capture antibody in the absence of immobilized FAP. Furthermore, baseline drift correction of the binding data is performed, which is caused by slow dissociation of the captured FAP from the immobilized antibody. This drift is measured by injecting running buffer through a flow cell with the antibody and FAP immobilized to the sensor surface.
Biacore™ CM5 sensor chips were used. […] A 150 µL aliquot was transferred into plastic vials and placed into the sample rack of the Biacore™ T200 instrument. Amine Coupling Kit Reagent solutions were transferred into plastic vials and placed into the sample rack: 90 µL of 0.4 M 1-ethyl-3-(3-dimethylaminopropyl)carbodiimide (EDC), and 90 µL of 0.1 M N-hydroxysuccinimide (NHS). A 130 µL aliquot of 1 M ethanolamine-HCl, pH 8.5, was transferred into plastic vials and placed into the sample rack. The Biacore™ liquid system was set-up as follows: Separate bottles containing distilled water (1 L), Running Buffer (500 mL), as well as an empty bottle for waste were placed onto the buffer tray. A preinstalled program for immobilization was used, with an immobilization level of 7000 RU. Immobilization was performed at 25°C. The immobilization procedure of anti-FAP antibodies was performed, as described in the Table 5. Table 5: Immobilization protocol for anti-FAP antibodies used on the CM5 sensor chip.
Human recombinant FAP was diluted in Running Buffer to a final concentration of 20 µg/mL. A 100 µL aliquot of human FAP-Working-Solution was transferred into plastic vials and placed into a sample rack. A 0.5 mM Compound-Stock-Solution was prepared by dissolving each compound in DMSO. For each test compound, Compound-Stock-Solutions were diluted in Running Buffer (HBST) at 500 nM and further diluted with HBST-DMSO Buffer (0.1% DMSO). SPR binding analyses for binary complexes were performed in SCK mode at 25°C. Following three SCK measurements, a baseline drift was assessed by injecting running buffer through a flow cell, with the antibody and FAP immobilized to the sensor surface. Table 6: Protocol for assessing the binding kinetics.
For each test compound, SPR raw data in the form of resonance units (RU) were plotted as sensorgrams using the Biacore™ T200 control software. The signal from the blank sensorgram was subtracted from that of the test compound sensorgram (blank corrected). The blank corrected sensorgram was corrected for baseline drift by subtracting the sensorgram of a SCK run without the test compound (running buffer only). The association rate (kon), dissociation rate (koff), dissociation constant (KD), and t1/2 were calculated from Blank-normalized SPR data using the 1:1 Langmuir binding model from the Biacore™ T200 evaluation software. Raw data and fit results were imported as text files in IDBS. The pKD value (negative decadic logarithm of dissociation constant) was calculated in the IDBS excel template.

[2] = target: T2, FAP-expressing human WI-38 fibroblasts (Homo sapiens, UniProt Q12884); assay: Competitive FACS binding assay (displacement of Cy5-labeled FAP inhibitor 3BP-2935); details: 3 nM Cy5-labeled 3BP-2935, 4°C, 1 hour
T2 construct: FAP-expressing human WI-38 fibroblasts (ECACC 90020107) were cultured in EMEM; host or cells: WI-38 human fibroblasts
T2 sequence (Q12884 1-760): T1 sequence (Q12884 1-760)
Description: In order to determine binding of compounds according to the present invention to FAP-expressing cells, a competitive FACS binding assay was established.
Cells were diluted in FACS buffer to a final concentration of 100.000 cells per ml and 200 µl of the cell suspension are transferred to a u-shaped non-binding 96-well plate (Greiner).
Cell were washed twice with FACS buffer (see above) and resuspended in 200 µl FACS buffer. Cells were analyzed in an Attune NxT flow cytometer (Thermo Fisher Scientific). Median fluorescence intensities (Cy5 channel) was calculated by Attune NxT software and plotted against test compound concentrations. Four parameter logistic (4PL) curve fitting and pIC50 calculations were performed using ActivityBase software.

[3] = target: T1, Human recombinant FAP; assay: FRET-based FAP protease activity assay (human); assay type: biochemical; design: purchased R&D systems 3715-SE; details: FRET-peptide substrate, 37°C; for IC50: read-out: pIC50 (Activity) (converted)
Description: (§1) In order to determine the inhibitory activity a FRET-based FAP protease activity assay was established.
25 µL of a 30 µM substrate solution, diluted in assay buffer, was added. […] Four parameter logistic (4PL) curve fitting and pIC50 calculations were performed using ActivityBase software (IDBS).

[4] = target: T3, Recombinant mouse FAP (Mus musculus, UniProt P97321); assay: FRET-based FAP protease activity assay (mouse); assay type: biochemical; details: FRET-peptide substrate, 37°C; for IC50: read-out: pIC50 (mouseFAP) (converted)
T3 construct: purchased R&D systems 8647-SE
T3 sequence (P97321 1-761): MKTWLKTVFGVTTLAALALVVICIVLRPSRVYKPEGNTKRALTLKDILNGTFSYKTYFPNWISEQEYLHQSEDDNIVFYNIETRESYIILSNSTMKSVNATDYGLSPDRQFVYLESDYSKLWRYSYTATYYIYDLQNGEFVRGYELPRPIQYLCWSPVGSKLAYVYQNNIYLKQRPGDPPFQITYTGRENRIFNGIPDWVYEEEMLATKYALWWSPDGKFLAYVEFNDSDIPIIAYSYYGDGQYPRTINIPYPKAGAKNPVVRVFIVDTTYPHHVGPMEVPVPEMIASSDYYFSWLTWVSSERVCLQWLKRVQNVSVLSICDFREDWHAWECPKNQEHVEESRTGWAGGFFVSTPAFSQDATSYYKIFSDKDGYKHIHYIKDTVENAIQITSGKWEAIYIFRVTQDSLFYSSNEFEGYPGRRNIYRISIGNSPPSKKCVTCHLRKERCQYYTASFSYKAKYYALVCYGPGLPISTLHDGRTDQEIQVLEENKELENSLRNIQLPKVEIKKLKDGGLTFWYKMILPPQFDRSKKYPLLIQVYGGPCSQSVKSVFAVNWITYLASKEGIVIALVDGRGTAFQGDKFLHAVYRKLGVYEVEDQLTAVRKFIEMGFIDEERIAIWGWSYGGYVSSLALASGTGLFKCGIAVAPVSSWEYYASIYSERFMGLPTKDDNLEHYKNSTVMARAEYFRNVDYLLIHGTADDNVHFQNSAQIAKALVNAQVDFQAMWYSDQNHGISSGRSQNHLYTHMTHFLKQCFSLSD
Description: as §1
25 µL of a 30 µM substrate solution, diluted in assay buffer, was added. […] Four parameter logistic (4PL) curve fitting and pIC50 calculations were performed using ActivityBase software.

[5] = target: T4, Recombinant human DPP4 (Homo sapiens, UniProt P27487); assay: DPP4 protease activity assay; assay type: biochemical; details: 20 µM GP-AMC substrate; read-out: pIC50 (DPP4) (converted)
T4 construct: purchased R&D systems 9168-SE
T4 sequence (P27487 whole entry): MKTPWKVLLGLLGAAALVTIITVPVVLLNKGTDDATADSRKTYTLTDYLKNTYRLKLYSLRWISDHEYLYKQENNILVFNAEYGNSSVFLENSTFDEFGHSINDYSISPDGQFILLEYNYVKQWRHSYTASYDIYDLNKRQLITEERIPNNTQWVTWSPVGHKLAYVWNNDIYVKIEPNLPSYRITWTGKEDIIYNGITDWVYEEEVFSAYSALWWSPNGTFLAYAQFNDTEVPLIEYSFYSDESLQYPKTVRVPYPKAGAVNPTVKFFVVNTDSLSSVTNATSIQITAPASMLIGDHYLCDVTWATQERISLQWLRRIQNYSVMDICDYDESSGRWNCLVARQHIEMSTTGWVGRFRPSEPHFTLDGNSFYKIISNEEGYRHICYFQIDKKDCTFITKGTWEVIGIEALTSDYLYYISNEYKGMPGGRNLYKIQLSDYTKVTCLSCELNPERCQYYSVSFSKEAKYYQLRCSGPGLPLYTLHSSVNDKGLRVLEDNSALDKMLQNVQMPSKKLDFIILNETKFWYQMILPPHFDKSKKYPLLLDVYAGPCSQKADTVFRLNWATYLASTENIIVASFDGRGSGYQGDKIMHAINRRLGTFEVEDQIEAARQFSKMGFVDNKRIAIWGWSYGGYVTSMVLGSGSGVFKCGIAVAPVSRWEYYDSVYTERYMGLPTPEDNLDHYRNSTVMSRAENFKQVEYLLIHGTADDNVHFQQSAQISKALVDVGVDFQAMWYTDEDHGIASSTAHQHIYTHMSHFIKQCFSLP
Description: The PREP activity assay was performed using the FACS buffer (PBS including 1% FBS, Sigma-Aldrich, Cat# D8537). […] The DPP4 activity assay was performed in DPP assay buffer (25 mM Tris, pH 8.0).
Four parameter logistic (4PL) curve fitting and pIC50 calculations were performed using ActivityBase software.

Row | SMILES | HL [min] (Biacore) [1] | IC50 [2] [nM] | IC50 [3] [nM] | further results
1 | O=C(NCC(=O)N1CCC[C@H]1B(O)O)c1ccnc2ccccc12 | – | 3.16 | 1.26 | –
2 | O=C(NCC(=O)N1CCC[C@H]1C(=O)c1ncn[nH]1)c1ccnc2ccccc12 | – | 200 | 63.1 | IC50 [4]: 79.4 nM
3 | N#C[C@@H]1CC(F)(F)CN1C(=O)CNC(=O)c1ccnc2c(OCCCCc3ccccc3)cccc12 | – | – | – | pIC50 (FACS) [2]: 7.7; pIC50 (Activity) [3]: 8.2
4 | N#C[C@@H]1CCCN1C(=O)CNC(=O)c1ccnc2ccc(-c3ccc(C(=O)O)cc3)cc12 | 11 | 2.51 | 1.58 | Kd [1]: 0.2 nM; IC50 [5]: > 1000 nM
5 | N#C[C@@H]1CC(F)(F)CN1C(=O)CNC(=O)c1ccnc2ccc(-c3ccc(C(=O)NCCN4CCN(C(=O)CN5CCN(CC(=O)O)CCN(CC(=O)O)CCN(CC(=O)O)CC5)CC4)nc3)cc12 | >500 | – | – | pKD (Biacore) [1]: >11
6 | N#C[C@@H]1CCCN1C(=O)CNC(=O)c1ccnc2ccccc12 | – | – | – | IC50 [5]: > 1000 nM
7 | O=C(O)CN1CCN(CC(=O)O)CCN(CC(=O)NCCCS(=O)(=O)c2ccc(-c3ccc4nccc(C(=O)NCC(=O)N5CCC[C@H]5C(=O)c5nc6ccccc6o5)c4c3)cc2)CCN(CC(=O)O)CC1 [drawing 317] | >500 | – | – | pKD (Biacore) [1]: >11; pIC50 (mouseFAP) [4]: 8.6
8 | O=C(NCC(=O)N1CCC[C@H]1C(=O)CO)c1ccnc2ccccc12 | 3.1 | – | – | pIC50 (mouseFAP) [4]: 8.2
9 | Cn1ncnc1C(=O)[C@@H]1CCCN1C(=O)CNC(=O)c1ccnc2ccccc12 | – | > 1000 | 316 | –
10 | N#C[C@@H]1CCCN1C(=O)CNC(=O)c1ccnc2ccc(-n3cc(C(=O)NCCCNC(=O)CN4CCN(CC(=O)O)CCN(CC(=O)O)CCN(CC(=O)O)CC4)nn3)cc12 | 95 | – | – | –

Further lines, with some results ahead:

Row | HL [min] (Biacore) [1] | IC50 [2] [nM] | IC50 [3] [nM] | SMILES | further results
11 | 10.4 | – | – | N#C[C@@H]1CC(F)(F)CN1C(=O)CNC(=O)c1ccnc2ccccc12 | –
12 | – | 10 | 2.51 | CC(C)(C)OC(=O)N1CC[N+]([O-])(CCCOc2ccc3c(c2)c(C(=O)NCC(=O)N2CC(F)(F)C[C@H]2C#N)cc[n+]3[O-])CC1 | –
13 | – | 10 | 2.51 | CC(C)(C)OC(=O)N1CCN(CCCOc2ccc3c(c2)c(C(=O)NCC(=O)N2CC(F)(F)C[C@H]2C#N)cc[n+]3[O-])CC1 | –
14 | – | 15.8 | 3.16 | N#C[C@@H]1CC(F)(F)CN1C(=O)CNC(=O)c1ccnc2c(OCC3CC3)cccc12 | –
15 | – | 2 | 0.501 | Cc1c(-c2ccc(S(C)(=O)=O)cc2)ccc2nccc(C(=O)NCC(=O)N3CC(F)(F)C[C@H]3C#N)c12 | IC50 [4]: 2 nM
16 | >500 | 2 | 0.501 | CS(=O)(=O)c1ccc(-c2ccc3nccc(C(=O)NCC(=O)N4CC(F)(F)C[C@H]4C#N)c3c2)c(CO)c1 | Kd [1]: < 0.01 nM
17 | – | 2.51 | 1 | CC(C)(C)OC(=O)N1CC[N+]([O-])(CCCOc2ccc3nccc(C(=O)NCC(=O)N4CC(F)(F)C[C@H]4C#N)c3c2)CC1 | –
18 | – | 1.26 | 0.501 | Cc1cc2nccc(C(=O)NCC(=O)N3CC(F)(F)C[C@H]3C#N)c2cc1-c1ccc(S(C)(=O)=O)cc1 | IC50 [4]: 1.58 nM
19 | – | 3.98 | 1.58 | CC(C)(C)OC(=O)N1CCN(CCCOc2ccc3nccc(C(=O)NCC(=O)N4CC(F)(F)C[C@H]4C#N)c3c2)CC1 | –
20 | – | 20 | 6.31 | COc1cccc2c(C(=O)NCC(=O)N3CC(F)(F)C[C@H]3C#N)ccnc12 | –
21 | – | 20 | 3.16 | CCOc1cccc2c(C(=O)NCC(=O)N3CC(F)(F)C[C@H]3C#N)ccnc12 | –
22 | – | 25.1 | 12.6 | Cc1cccc2c(C(=O)NCC(=O)N3CC(F)(F)C[C@H]3C#N)ccnc12 | –
